Activity calls are given as the source filed them. No cut-off for these calls is given here.
species on record: Danio rerio; experiment: Inhibition of AB zebrafish early embryo development assessed as delay in epiboly at 2.5 uM after 10 hrs post fertilization by inverted microscopic analysis; format: functional, organism-based

Row | Structure (SMILES) | inhibition
1 | C=CCOC(=O)N1c2cc3c(cc2[C@@H]2OC(C)(C)O[C@H]2[C@@H]1CCO)OCO3 | Active
2 | CC[C@H](C)[C@@H]1NC(=O)C[C@H]2[C@@H]3OC(C)(C)O[C@H]3c3cc4c(cc3N2C/C=C\COC1=O)OCO4 | Active
3 | C=CCOC(=O)N1c2cc3c(cc2[C@@H]2OC(C)(C)O[C@H]2[C@@H]1CCN(Cc1ccc(F)cc1)C(=O)[C@H](CC(C)C)NC(=O)OCC1c2ccccc2-c2ccccc21)OCO3 | Active

species on record: Danio rerio; experiment: Antiangiogenic activity in transgenic zebrafish embryo expressing EGFP at 2.5 uM after 36 hrs post fertilization by inverted microscopic analysis; format: functional, organism-based

Row | Structure (SMILES) | inhibition
4 | C=CCOC(=O)N1c2cc3c(cc2[C@@H]2OC(C)(C)O[C@H]2[C@@H]1CCO)OCO3 | Active
5 | C=CCOC[C@H](Cc1ccccc1)NC(=O)C[C@@H]1Nc2cc3c(cc2[C@@H]2OC(C)(C)O[C@@H]12)OCO3 | Active
6 | CC(C)C[C@@H]1NC(=O)C[C@H]2[C@@H]3OC(C)(C)O[C@H]3c3cc4c(cc3N2C/C=C\COC1=O)OCO4 | Active

Reference: ChEMBL document CHEMBL2407082, “Tetrahydroquinoline-derived macrocyclic toolbox: the discovery of antiangiogenesis agents in zebrafish assay” (ACS Med Chem Lett, 2013)
